# Where two headings read alike, the source gives them in different places.
# What was measured:
# human (hACC2) = human (hACC2) (Homo sapiens, UniProt O00763); assay: In vitro ACC inhibition assay (ADP-Glo), hACC2; type: biochemical; conditions: 5 nM ACC2, 20 μM ATP, 20 μM acetyl-CoA
# Description: The detailed procedure is as follows. […] 10 μL ADP glo reagent was added. […] 20 μL kinase detection reagent was added.
# C. albicans = assay: Antifungal Activity Assay (broth microtiter MIC), C. albicans; type: cell-based, Candida albicans; conditions: for MIC: Candida albicans, ATCC90028, 48 h
# Description: (§1) Compounds of the present invention were evaluated in an Antifungal Activity Assay. An exemplary procedure for the assay, which measures the susceptibility of various Candida species to antifungal compounds, follows. Compounds to be tested (including fluconazole and amphotericin B) were dissolved in DMSO to obtain a solution having a concentration of 1 mg/mL. These stock solutions were sterile filtered using a 0.22 um nylon syringe filter, then diluted in sterile water to achieve a final concentration of 128 μg/mL.
# (§2) All species were grown from frozen stock by directly plating on to freshly prepared Sabouraud Dextrose agar (BD, Difco) and incubated overnight in ambient air at 35° C. for 24 h. A direct suspension was prepared in RPMI 1640+MOPS (Lonza, Biowhittaker) by taking individual colonies from the overnight cultures using sterile swabs soaked in sterile saline. The concentration of the suspension was determined using pre-determined standard curves. These suspensions were then diluted down to 5×10^3 CFU/mL to achieve a final concentration of 2.5×10^3 CFU/mL once added to the microtiter plate as per CLSI guidelines (M27-A3, Vol. 28 No. 14).
# (§3) Broth microtiter MIC challenge plates were prepared following CLSI guidelines (M27-A3, Vol. 28 No. 14). The original CLSI guidelines focused on reading Candida MICs after 48 h of incubation. As reading after only 24 h offers a clear advantage of patient care, QC limits are being established for all drugs at 24 h. That being said there are no known interpretive breakpoints for amphotericin B at 24 h and the current fluconazole interpretive breakpoints are based on a 48 h reading. The MICs for the test compounds were recorded at 48 h. All MIC determinations were achieved by visually comparing the growth found in the antibiotic challenged wells to that of the growth control.
# C. krusei = assay: Antifungal Activity Assay (broth microtiter MIC), C. krusei; type: cell-based, Candida krusei; conditions: for MIC: Pichia kudriavzevii, ATCC6258, 48 h
# Description: as §1, §2, §3
# C. parapsilosis = assay: Antifungal Activity Assay (broth microtiter MIC), C. parapsilosis; type: cell-based, Candida parapsilosis; conditions: for MIC: Lodderomyces parapsilosis, ATCC22019, 48 h
# Description: as §1, §2, §3
# fungal (fACC2) = fungal (fACC2) (UniProt Q00955); conditions: read-out: fACC2 (in vitro ACC2 Inhibition Assay, IC50), ADP-Glo, 5 nM ACC2, 20 μM ATP, 20 μM acetyl-CoA
# Sequence of fungal (fACC2) (Q00955 whole entry): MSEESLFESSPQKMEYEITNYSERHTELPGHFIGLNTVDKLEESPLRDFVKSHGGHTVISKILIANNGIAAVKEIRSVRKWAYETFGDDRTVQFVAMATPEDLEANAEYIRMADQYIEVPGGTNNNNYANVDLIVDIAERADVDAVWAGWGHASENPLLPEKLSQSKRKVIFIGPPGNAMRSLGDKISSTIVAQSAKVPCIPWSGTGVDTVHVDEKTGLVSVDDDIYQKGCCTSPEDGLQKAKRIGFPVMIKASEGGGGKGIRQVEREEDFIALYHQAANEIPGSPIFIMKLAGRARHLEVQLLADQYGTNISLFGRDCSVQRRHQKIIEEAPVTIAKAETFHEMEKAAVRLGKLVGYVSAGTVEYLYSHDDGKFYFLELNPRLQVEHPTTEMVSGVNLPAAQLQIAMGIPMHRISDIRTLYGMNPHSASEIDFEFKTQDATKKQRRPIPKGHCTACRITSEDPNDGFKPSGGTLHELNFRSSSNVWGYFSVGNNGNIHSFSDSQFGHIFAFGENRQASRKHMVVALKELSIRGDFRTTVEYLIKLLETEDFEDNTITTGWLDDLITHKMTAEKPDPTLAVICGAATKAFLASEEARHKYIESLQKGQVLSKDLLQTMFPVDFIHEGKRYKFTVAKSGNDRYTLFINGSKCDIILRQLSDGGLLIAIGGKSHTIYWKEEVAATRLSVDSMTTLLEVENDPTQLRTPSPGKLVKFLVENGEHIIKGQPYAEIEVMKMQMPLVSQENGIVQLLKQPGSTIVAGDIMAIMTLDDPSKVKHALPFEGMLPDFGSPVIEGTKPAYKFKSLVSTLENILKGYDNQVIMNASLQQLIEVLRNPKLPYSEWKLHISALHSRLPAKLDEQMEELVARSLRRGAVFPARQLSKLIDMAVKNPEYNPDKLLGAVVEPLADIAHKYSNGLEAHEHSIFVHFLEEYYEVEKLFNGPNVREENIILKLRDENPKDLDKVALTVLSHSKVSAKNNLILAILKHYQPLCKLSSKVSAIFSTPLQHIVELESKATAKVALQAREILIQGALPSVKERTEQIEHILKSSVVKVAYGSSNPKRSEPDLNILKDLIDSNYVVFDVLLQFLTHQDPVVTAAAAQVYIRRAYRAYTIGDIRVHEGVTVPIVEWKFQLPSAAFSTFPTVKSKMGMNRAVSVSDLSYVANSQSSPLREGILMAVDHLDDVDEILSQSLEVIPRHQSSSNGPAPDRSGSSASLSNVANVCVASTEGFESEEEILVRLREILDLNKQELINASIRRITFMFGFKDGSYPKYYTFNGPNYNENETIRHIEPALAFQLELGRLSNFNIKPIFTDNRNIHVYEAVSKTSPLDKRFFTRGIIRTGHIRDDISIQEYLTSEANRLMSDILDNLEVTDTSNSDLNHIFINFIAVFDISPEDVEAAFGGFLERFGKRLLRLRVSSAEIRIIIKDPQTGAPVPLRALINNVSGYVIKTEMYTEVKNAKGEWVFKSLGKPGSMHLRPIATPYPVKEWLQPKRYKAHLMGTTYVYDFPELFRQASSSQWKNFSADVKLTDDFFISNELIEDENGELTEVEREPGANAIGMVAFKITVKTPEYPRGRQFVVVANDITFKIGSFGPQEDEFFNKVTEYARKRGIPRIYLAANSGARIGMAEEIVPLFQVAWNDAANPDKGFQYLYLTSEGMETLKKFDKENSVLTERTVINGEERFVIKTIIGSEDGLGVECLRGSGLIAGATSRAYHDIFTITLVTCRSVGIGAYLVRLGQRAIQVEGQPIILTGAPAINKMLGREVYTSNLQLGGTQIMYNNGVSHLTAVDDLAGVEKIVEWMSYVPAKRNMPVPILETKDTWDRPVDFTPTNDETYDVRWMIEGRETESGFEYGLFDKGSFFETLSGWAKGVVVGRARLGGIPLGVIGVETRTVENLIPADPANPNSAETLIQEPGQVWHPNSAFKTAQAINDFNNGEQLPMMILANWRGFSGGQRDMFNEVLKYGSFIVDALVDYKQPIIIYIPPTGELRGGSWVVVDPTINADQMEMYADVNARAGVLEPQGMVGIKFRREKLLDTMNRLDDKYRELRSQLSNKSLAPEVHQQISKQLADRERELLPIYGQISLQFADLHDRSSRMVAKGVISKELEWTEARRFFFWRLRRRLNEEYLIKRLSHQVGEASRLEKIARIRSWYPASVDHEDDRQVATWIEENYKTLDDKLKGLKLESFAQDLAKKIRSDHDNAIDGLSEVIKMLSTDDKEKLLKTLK
# [1] = Table 3a, ATCC 90028, 3 replicates, MIC recorded at 48 h, read-out: MIC, C. albicans ATCC 90028
# [2] = Table 3b (additional results), ATCC 90028, 3 replicates, MIC recorded at 48 h, read-out: MIC, C. albicans ATCC 90028
# [3] = Table 3a, ATCC 6258, 3 replicates, MIC recorded at 48 h, read-out: MIC, C. krusei ATCC 6258
# [4] = Table 3b (additional results), ATCC 6258, 3 replicates, MIC recorded at 48 h, read-out: MIC, C. krusei ATCC 6258
# [5] = Table 3a, ATCC 22019, 3 replicates, MIC recorded at 48 h, read-out: MIC, C. parapsilosis ATCC 22019
# [6] = Table 3b (additional results), ATCC 22019, 3 replicates, MIC recorded at 48 h, read-out: MIC, C. parapsilosis ATCC 22019
# [7] = Table 3a, 3 replicates, MIC recorded at 48 h
# [8] = Table 3b (additional results), 3 replicates, MIC recorded at 48 h
# Sequence of human (hACC2) (O00763 whole entry): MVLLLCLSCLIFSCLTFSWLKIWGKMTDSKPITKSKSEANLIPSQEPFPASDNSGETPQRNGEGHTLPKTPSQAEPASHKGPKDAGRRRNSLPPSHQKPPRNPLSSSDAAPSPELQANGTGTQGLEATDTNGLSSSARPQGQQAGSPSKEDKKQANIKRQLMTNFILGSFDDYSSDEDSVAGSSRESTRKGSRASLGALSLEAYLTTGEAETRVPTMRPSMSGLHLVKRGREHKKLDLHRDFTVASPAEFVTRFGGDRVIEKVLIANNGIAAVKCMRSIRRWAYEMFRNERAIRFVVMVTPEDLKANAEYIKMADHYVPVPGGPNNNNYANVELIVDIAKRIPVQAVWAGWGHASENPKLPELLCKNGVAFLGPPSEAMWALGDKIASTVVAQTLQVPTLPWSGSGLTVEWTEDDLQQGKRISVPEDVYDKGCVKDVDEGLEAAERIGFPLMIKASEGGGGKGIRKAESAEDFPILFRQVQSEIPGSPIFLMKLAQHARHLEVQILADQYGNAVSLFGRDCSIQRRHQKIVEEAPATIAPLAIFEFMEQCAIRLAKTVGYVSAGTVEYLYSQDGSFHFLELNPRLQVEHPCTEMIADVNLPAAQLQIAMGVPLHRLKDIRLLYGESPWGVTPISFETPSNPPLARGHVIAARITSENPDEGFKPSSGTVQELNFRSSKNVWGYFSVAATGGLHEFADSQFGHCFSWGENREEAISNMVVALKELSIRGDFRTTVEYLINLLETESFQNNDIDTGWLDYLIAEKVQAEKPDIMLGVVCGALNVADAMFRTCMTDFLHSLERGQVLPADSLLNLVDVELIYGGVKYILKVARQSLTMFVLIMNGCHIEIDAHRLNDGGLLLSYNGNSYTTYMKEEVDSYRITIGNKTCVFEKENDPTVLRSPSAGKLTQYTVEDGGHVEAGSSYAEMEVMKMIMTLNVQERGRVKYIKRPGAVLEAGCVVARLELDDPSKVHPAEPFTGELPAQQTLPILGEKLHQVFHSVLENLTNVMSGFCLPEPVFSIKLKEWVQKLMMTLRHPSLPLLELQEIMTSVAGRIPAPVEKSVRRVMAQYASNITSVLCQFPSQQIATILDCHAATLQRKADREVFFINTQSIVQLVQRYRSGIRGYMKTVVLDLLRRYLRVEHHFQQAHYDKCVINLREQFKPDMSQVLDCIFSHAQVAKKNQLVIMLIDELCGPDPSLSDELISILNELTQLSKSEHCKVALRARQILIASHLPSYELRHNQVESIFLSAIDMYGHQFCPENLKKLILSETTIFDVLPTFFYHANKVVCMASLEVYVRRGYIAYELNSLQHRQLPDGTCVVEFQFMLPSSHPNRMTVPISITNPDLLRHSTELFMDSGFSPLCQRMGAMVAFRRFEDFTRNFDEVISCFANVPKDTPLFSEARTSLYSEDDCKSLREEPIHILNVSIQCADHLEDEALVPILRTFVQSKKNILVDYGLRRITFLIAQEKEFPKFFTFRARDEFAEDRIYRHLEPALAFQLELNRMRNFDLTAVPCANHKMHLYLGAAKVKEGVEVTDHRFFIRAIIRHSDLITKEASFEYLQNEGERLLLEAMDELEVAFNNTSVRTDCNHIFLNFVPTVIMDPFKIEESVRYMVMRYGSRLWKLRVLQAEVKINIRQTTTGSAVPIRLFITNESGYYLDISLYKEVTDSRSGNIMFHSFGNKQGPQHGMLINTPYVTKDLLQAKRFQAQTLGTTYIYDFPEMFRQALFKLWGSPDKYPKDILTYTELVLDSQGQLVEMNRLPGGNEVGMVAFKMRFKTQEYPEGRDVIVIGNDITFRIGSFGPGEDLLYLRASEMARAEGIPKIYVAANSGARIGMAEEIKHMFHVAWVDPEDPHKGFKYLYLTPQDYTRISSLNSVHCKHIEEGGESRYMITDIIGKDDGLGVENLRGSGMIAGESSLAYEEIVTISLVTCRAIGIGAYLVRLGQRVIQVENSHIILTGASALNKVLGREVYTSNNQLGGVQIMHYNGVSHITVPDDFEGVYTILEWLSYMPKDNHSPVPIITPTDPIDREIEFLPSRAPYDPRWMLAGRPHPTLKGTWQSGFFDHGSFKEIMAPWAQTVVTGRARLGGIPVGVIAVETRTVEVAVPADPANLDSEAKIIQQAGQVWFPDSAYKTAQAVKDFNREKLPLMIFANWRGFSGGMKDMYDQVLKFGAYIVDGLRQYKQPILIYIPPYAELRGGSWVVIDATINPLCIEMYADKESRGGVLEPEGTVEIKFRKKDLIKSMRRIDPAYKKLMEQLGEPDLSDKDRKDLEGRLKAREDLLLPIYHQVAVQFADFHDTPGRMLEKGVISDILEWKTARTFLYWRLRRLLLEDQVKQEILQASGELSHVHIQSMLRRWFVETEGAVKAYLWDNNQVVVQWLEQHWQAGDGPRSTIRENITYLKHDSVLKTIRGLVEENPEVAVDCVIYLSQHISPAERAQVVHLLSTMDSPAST
SMILES,IC50 (human (hACC2); Table 2a) [nM],"IC50 (human (hACC2); Table 2b, additional results) [nM]",MIC (C. albicans; [1]) [µg/mL],MIC (C. albicans; [2]) [µg/mL],MIC (C. krusei; [3]) [µg/mL],MIC (C. krusei; [4]) [µg/mL],MIC (C. parapsilosis; [5]) [µg/mL],MIC (C. parapsilosis; [6]) [µg/mL],IC50 (fungal (fACC2); Table 2a) [nM],"IC50 (fungal (fACC2); Table 2b, additional results) [nM]",other results
COCCCO[C@@H](Cn1c(=O)n(C(C)C(=O)NC(C)C)c(=O)c2c(C)c(-n3nccn3)sc21)c1cc(F)ccc1OC (stereo partly drawn) [Compound I-130],10 to 40,10 to 40,1.1 to 2,2.01 to 4,2.1 to 4,1.01 to 2,1.1 to 2,1.01 to 2,0.4 to 1,0.3 to 1,
COc1ccc(F)cc1[C@H](Cn1c(=O)n(C(C)C(=O)NC(C)C)c(=O)c2c(C)c(-n3nccn3)sc21)OCCO (stereo partly drawn) [Compound I-131],5 to 10,5 to 10,1.1 to 2,2.01 to 4,0.25 to 1,1.01 to 2,1.1 to 2,1.01 to 2,0.4 to 1,0.3 to 1,
COCCO[C@@H](Cn1c(=O)n(C(C)(C)C(=O)NC(C)C)c(=O)c2c(C)c(-n3nccn3)sc21)c1ccccc1OC [Compound I-133],5 to 10,5 to 10,1.1 to 2,1.01 to 2,1.1 to 2,0.25 to 1,2.1 to 4,0.25 to 1,1 to 5,1 to 5,
COCCO[C@@H](Cn1c(=O)n(C(C)(C)C(=O)NC2CCC2)c(=O)c2c(C)c(-n3nccn3)sc21)c1cc(F)ccc1OC [Compound I-134],5 to 10,5 to 10,,,,,,,1 to 5,1 to 5,"MIC, C. albicans ATCC 90028 (C. albicans; [7]): B (MIC of 1.1-2.0 μg/mL); MIC, C. albicans ATCC 90028 (C. albicans; [8]): D (MIC of >4.01 μg/mL); MIC, C. krusei ATCC 6258 (C. krusei; [7]): B (MIC of 1.1-2.0 μg/mL); MIC, C. krusei ATCC 6258 (C. krusei; [8]): B (MIC of 1.01-2.0 μg/mL); MIC, C. parapsilosis ATCC 22019 (C. parapsilosis; [7]): B (MIC of 1.1-2.0 μg/mL); MIC, C. parapsilosis ATCC 22019 (C. parapsilosis; [8]): A (MIC of 0.25-1.0 μg/mL)"
"COc1ccc(F)cc1[C@H](Cn1c(=O)n(C(C)(C)C(=O)NC(C)C)c(=O)c2c(C)c(-n3nccn3)sc21)OCCC(=O)O [Compound I-135, 3-[(1R)-1-(5-fluoro-2-methoxyphenyl)-2-(5-methyl-3-[1-methyl-1-[(propan-2-yl)carbamoyl]ethyl]-2,4-dioxo-6-(2H-1,2,3-triazol-2-yl)-1H,2H,3H,4H-thieno[2,3-d]pyrimidin-1-yl)ethoxy]propanoic acid]",10 to 40,10 to 40,0.25 to 1,0.25 to 1,2.1 to 4,0.25 to 1,2.1 to 4,0.25 to 1,1 to 5,0.3 to 1,
"COc1ccccc1[C@H](Cn1c(=O)n(C(C)(C)C(N)=O)c(=O)c2c(C)c(-n3nccn3)sc21)OCCC#N [Compound I-137, 2-[1-[(2R)-2-(2-cyanoethoxy)-2-(2-methoxyphenyl)ethyl]-5-methyl-2,4-dioxo-6-(2H-1,2,3-triazol-2-yl)-1H,2H,3H,4H-thieno[2,3-d]pyrimidin-3-yl]-2-methylpropanamide]",1 to 5,1 to 5,2.1 to 4,2.01 to 4,2.1 to 4,2.01 to 4,2.1 to 4,2.01 to 4,1 to 5,1 to 5,
COc1ccc(F)cc1[C@H](Cn1c(=O)n(C(C)(C)C(=O)O)c(=O)c2c(C)c(-n3nccn3)sc21)OCCN1CC(C#N)C1 [Compound I-145],,10 to 40,2.1 to 4,> 4.01,2.1 to 4,> 4.01,2.1 to 4,> 4.01,1 to 5,1 to 5,
COc1ccc(F)cc1[C@H](Cn1c(=O)n(C(C)(C)C(=O)NC(C)C)c(=O)c2c(C)c(-n3nccn3)sc21)OCCN1CC(C#N)C1 [Compound I-146],,> 40,,,,,,,1 to 5,1 to 5,"MIC (C. albicans; read-out: MIC, C. albicans ATCC 90028, Table 3a, 3 replicates, MIC recorded at 48 h): 2.1 to 4 µg/mL; MIC (C. albicans; read-out: MIC, C. albicans ATCC 90028, Table 3b (additional results), 3 replicates, MIC recorded at 48 h): 1.01 to 2 µg/mL; MIC (C. krusei; read-out: MIC, C. krusei ATCC 6258, Table 3a, 3 replicates, MIC recorded at 48 h): 2.1 to 4 µg/mL; MIC (C. krusei; read-out: MIC, C. krusei ATCC 6258, Table 3b (additional results), 3 replicates, MIC recorded at 48 h): 0.25 to 1 µg/mL; MIC (C. parapsilosis; read-out: MIC, C. parapsilosis ATCC 22019, Table 3a, 3 replicates, MIC recorded at 48 h): 2.1 to 4 µg/mL; MIC (C. parapsilosis; read-out: MIC, C. parapsilosis ATCC 22019, Table 3b (additional results), 3 replicates, MIC recorded at 48 h): 0.25 to 1 µg/mL"

# From patent publication US10800791B2, “Triazole ACC inhibitors and uses thereof” (Gilead Apollo, LLC, priority 2015, dated 2020)
